Numbers after ± are expanded uncertainties.
Experiment: xn = mol fraction of the nth substance listed
Conditions: 283.15 K, Fluid (supercritical or subcritical phases), Vibrating tube method, x1 = 0.97

O=C=O [carbon dioxide] + CO
mass density (16550 kPa): 963.02 ± 0.8 kg/m3 | mass density (16575 kPa): 963.18 ± 0.8 kg/m3 | mass density (16600 kPa): 963.26 ± 0.8 kg/m3 | mass density (16625 kPa): 963.43 ± 0.8 kg/m3 | mass density (16650 kPa): 963.51 ± 0.8 kg/m3 | mass density (16675 kPa): 963.66 ± 0.8 kg/m3 | mass density (16700 kPa): 963.77 ± 0.8 kg/m3 | mass density (16725 kPa): 963.92 ± 0.8 kg/m3 | mass density (16750 kPa): 964 ± 0.8 kg/m3 | mass density (16775 kPa): 964.16 ± 0.8 kg/m3 | mass density (16800 kPa): 964.28 ± 0.8 kg/m3 | mass density (16825 kPa): 964.4 ± 0.8 kg/m3 | mass density (16850 kPa): 964.49 ± 0.8 kg/m3 | mass density (16875 kPa): 964.65 ± 0.8 kg/m3 | mass density (16900 kPa): 964.79 ± 0.8 kg/m3 | mass density (16925 kPa): 964.88 ± 0.8 kg/m3 | mass density (16950 kPa): 964.99 ± 0.8 kg/m3 | mass density (16975 kPa): 965.14 ± 0.8 kg/m3 | mass density (17000 kPa): 965.28 ± 0.8 kg/m3 | mass density (17025 kPa): 965.37 ± 0.8 kg/m3 | mass density (17050 kPa): 965.46 ± 0.8 kg/m3 | mass density (17075 kPa): 965.62 ± 0.8 kg/m3 | mass density (17100 kPa): 965.75 ± 0.8 kg/m3 | mass density (17125 kPa): 965.87 ± 0.8 kg/m3 | mass density (17150 kPa): 965.97 ± 0.8 kg/m3 | mass density (17175 kPa): 966.11 ± 0.8 kg/m3 | mass density (17200 kPa): 966.25 ± 0.8 kg/m3 | mass density (17225 kPa): 966.36 ± 0.8 kg/m3 | mass density (17250 kPa): 966.51 ± 0.8 kg/m3 | mass density (17275 kPa): 966.6 ± 0.8 kg/m3 | mass density (17300 kPa): 966.7 ± 0.8 kg/m3 | mass density (17325 kPa): 966.85 ± 0.8 kg/m3 | mass density (17350 kPa): 966.97 ± 0.8 kg/m3 | mass density (17375 kPa): 967.09 ± 0.8 kg/m3 | mass density (17400 kPa): 967.17 ± 0.8 kg/m3 | mass density (17425 kPa): 967.31 ± 0.8 kg/m3 | mass density (17450 kPa): 967.41 ± 0.8 kg/m3 | mass density (17475 kPa): 967.57 ± 0.8 kg/m3 | mass density (17500 kPa): 967.66 ± 0.8 kg/m3 | mass density (17525 kPa): 967.82 ± 0.8 kg/m3 | mass density (17550 kPa): 967.9 ± 0.8 kg/m3 | mass density (17575 kPa): 968.06 ± 0.8 kg/m3 | mass density (17600 kPa): 968.15 ± 0.8 kg/m3 | mass density (17625 kPa): 968.24 ± 0.8 kg/m3 | mass density (17650 kPa): 968.4 ± 0.8 kg/m3 | mass density (17675 kPa): 968.48 ± 0.8 kg/m3 | mass density (17700 kPa): 968.64 ± 0.8 kg/m3 | mass density (17725 kPa): 968.78 ± 0.8 kg/m3 | mass density (17750 kPa): 968.88 ± 0.8 kg/m3 | mass density (17775 kPa): 968.98 ± 0.8 kg/m3 | mass density (17800 kPa): 969.12 ± 0.8 kg/m3 | mass density (17825 kPa): 969.25 ± 0.8 kg/m3 | mass density (17850 kPa): 969.37 ± 0.8 kg/m3 | mass density (17875 kPa): 969.46 ± 0.8 kg/m3 | mass density (17900 kPa): 969.6 ± 0.8 kg/m3 | mass density (17925 kPa): 969.69 ± 0.8 kg/m3 | mass density (17950 kPa): 969.8 ± 0.8 kg/m3 | mass density (17975 kPa): 969.94 ± 0.8 kg/m3 | mass density (18000 kPa): 970.08 ± 0.8 kg/m3 | mass density (18025 kPa): 970.18 ± 0.8 kg/m3 | mass density (18050 kPa): 970.31 ± 0.8 kg/m3 | mass density (18075 kPa): 970.43 ± 0.8 kg/m3 | mass density (18100 kPa): 970.52 ± 0.8 kg/m3 | mass density (18125 kPa): 970.66 ± 0.8 kg/m3 | mass density (18150 kPa): 970.8 ± 0.8 kg/m3 | mass density (18175 kPa): 970.91 ± 0.8 kg/m3 | mass density (18200 kPa): 970.99 ± 0.8 kg/m3 | mass density (18225 kPa): 971.16 ± 0.8 kg/m3 | mass density (18250 kPa): 971.25 ± 0.8 kg/m3 | mass density (18275 kPa): 971.39 ± 0.8 kg/m3 | mass density (18300 kPa): 971.48 ± 0.8 kg/m3 | mass density (18325 kPa): 971.57 ± 0.8 kg/m3 | mass density (18350 kPa): 971.73 ± 0.8 kg/m3 | mass density (18375 kPa): 971.85 ± 0.8 kg/m3 | mass density (18400 kPa): 971.98 ± 0.8 kg/m3 | mass density (18425 kPa): 972.05 ± 0.8 kg/m3 | mass density (18450 kPa): 972.17 ± 0.8 kg/m3 | mass density (18475 kPa): 972.3 ± 0.8 kg/m3 | mass density (18500 kPa): 972.43 ± 0.8 kg/m3 | mass density (18525 kPa): 972.54 ± 0.8 kg/m3 | mass density (18550 kPa): 972.62 ± 0.8 kg/m3 | mass density (18575 kPa): 972.76 ± 0.8 kg/m3 | mass density (18600 kPa): 972.9 ± 0.8 kg/m3 | mass density (18625 kPa): 973.03 ± 0.8 kg/m3 | mass density (18650 kPa): 973.11 ± 0.8 kg/m3 | mass density (18675 kPa): 973.21 ± 0.8 kg/m3 | mass density (18700 kPa): 973.35 ± 0.8 kg/m3 | mass density (18725 kPa): 973.46 ± 0.8 kg/m3 | mass density (18750 kPa): 973.6 ± 0.8 kg/m3 | mass density (18775 kPa): 973.72 ± 0.8 kg/m3 | mass density (18800 kPa): 973.84 ± 0.8 kg/m3 | mass density (18825 kPa): 973.96 ± 0.8 kg/m3 | mass density (18850 kPa): 974.07 ± 0.8 kg/m3 | mass density (18875 kPa): 974.17 ± 0.8 kg/m3 | mass density (18900 kPa): 974.28 ± 0.8 kg/m3 | mass density (18925 kPa): 974.41 ± 0.8 kg/m3 | mass density (18950 kPa): 974.55 ± 0.8 kg/m3 | mass density (18975 kPa): 974.63 ± 0.8 kg/m3 | mass density (19000 kPa): 974.74 ± 0.8 kg/m3 | mass density (19025 kPa): 974.9 ± 0.8 kg/m3 | mass density (19050 kPa): 974.98 ± 0.8 kg/m3 | mass density (19075 kPa): 975.08 ± 0.8 kg/m3 | mass density (19100 kPa): 975.18 ± 0.8 kg/m3 | mass density (19125 kPa): 975.31 ± 0.8 kg/m3 | mass density (19150 kPa): 975.44 ± 0.8 kg/m3 | mass density (19175 kPa): 975.52 ± 0.8 kg/m3 | mass density (19200 kPa): 975.66 ± 0.8 kg/m3 | mass density (19225 kPa): 975.76 ± 0.8 kg/m3 | mass density (19250 kPa): 975.85 ± 0.8 kg/m3 | mass density (19275 kPa): 976.02 ± 0.8 kg/m3 | mass density (19300 kPa): 976.1 ± 0.8 kg/m3 | mass density (19325 kPa): 976.18 ± 0.8 kg/m3 | mass density (19350 kPa): 976.34 ± 0.8 kg/m3 | mass density (19375 kPa): 976.42 ± 0.8 kg/m3 | mass density (19400 kPa): 976.53 ± 0.8 kg/m3 | mass density (19425 kPa): 976.66 ± 0.8 kg/m3 | mass density (19450 kPa): 976.74 ± 0.8 kg/m3 | mass density (19475 kPa): 976.85 ± 0.8 kg/m3 | mass density (19500 kPa): 976.99 ± 0.8 kg/m3 | mass density (19525 kPa): 977.1 ± 0.8 kg/m3 | mass density (19550 kPa): 977.22 ± 0.8 kg/m3

Reference: the NIST ThermoML archive (doi:10.1016/j.jct.2016.03.026)
